{"source": "patent US20240189287A1", "about": "“PERIPHERALLY RESTRICTED CB1 RECEPTOR BLOCKERS AND USES THEREOF” (BIONANOSIM (BNS) LTD, priority 2021, published 2024)", "key": {"hERG potassium channels": {"molecular_target": "hERG potassium channels (Homo sapiens (Human), UniProt Q12809)", "sequence (Q12809 whole entry)": "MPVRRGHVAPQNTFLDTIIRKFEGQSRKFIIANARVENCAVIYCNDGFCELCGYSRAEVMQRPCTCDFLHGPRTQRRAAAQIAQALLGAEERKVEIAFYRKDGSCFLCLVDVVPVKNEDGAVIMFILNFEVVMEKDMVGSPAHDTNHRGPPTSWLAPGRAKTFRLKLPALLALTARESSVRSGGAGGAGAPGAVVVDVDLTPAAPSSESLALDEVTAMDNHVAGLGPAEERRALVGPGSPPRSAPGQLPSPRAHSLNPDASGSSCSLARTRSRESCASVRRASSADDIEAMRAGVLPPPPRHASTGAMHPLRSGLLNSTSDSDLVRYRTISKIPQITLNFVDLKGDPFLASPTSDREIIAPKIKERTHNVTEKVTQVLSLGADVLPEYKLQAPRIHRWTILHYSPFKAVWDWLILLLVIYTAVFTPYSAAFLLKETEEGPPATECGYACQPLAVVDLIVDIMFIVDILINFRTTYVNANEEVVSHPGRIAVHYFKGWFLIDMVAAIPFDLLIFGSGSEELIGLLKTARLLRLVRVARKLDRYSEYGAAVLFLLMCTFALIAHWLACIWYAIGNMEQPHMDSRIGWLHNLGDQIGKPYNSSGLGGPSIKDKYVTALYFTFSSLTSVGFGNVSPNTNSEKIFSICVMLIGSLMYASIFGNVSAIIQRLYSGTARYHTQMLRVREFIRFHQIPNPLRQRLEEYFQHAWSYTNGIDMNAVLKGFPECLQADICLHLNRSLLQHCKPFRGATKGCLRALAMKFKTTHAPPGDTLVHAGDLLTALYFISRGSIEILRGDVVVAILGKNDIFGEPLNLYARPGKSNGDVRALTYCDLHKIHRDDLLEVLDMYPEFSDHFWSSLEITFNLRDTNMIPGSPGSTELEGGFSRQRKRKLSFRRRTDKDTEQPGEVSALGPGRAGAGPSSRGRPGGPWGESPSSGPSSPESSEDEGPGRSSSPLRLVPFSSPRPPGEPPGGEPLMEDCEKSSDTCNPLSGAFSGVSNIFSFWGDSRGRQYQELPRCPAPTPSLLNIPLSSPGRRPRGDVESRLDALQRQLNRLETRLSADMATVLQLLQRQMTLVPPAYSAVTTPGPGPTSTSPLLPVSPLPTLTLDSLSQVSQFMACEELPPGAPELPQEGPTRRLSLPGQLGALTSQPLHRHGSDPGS", "assay": "hERG assay, automated patch clamp (SyncroPatch 384PE)", "type": "cell-based", "conditions": "for potential for cardiotoxicity (QT prolongation): acceptance criteria IC50>100* Ki; for IC50: whole cell hERG currents"}, "MDR1-MDCKII cells": {"test_system": "MDR1-MDCKII cells", "assay": "MDR1-MDCK II cell permeation assay (bi-directional permeability, P-gp efflux)", "type": "in vitro ADME", "experimental": "(§1) Test and reference compounds were diluted with transport buffer (HBSS with 10 mM Hepes, pH 7.4) from stock solution to a concentration of 2 μM (DMSO<1%) and applied to the apical or basolateral side of the cell monolayer. Permeation of the test compounds from A to B direction or B to A direction was determined in duplicate with/without P-gp inhibitor (GF120918, 10 μM). […] The plate was incubated for 2.5 hours in CO2 incubator at 37±1° C., with 5% CO2 at saturated humidity without shaking. In addition, the efflux ratio of each compound was also determined. Test and reference compounds were quantified by LC-MS/MS analysis based on the peak area ratio of analyte/IS.\n(§2) The in vitro bi-directional permeability across MDR1-MDCKII cells including P-glycoprotein (Pgp, ABCB1) efflux in the presence and absence of a P-gp inhibitor is an indicator as to the tendency of an orally administered compound to penetrate the brain."}, "P-gp (MDR1, ABCB1)": {"test_system": "P-gp (MDR1, ABCB1)", "assay": "MDR1-MDCK II cell permeation assay (bi-directional permeability, P-gp efflux)", "type": "in vitro ADME", "conditions": "dog, MDCK-MDR1, pH 7.4", "experimental": "as §1, §2"}, "CYP2C9": {"molecular_target": "CYP2C9 (Homo sapiens (Human), UniProt P11712)", "sequence (P11712 whole entry)": "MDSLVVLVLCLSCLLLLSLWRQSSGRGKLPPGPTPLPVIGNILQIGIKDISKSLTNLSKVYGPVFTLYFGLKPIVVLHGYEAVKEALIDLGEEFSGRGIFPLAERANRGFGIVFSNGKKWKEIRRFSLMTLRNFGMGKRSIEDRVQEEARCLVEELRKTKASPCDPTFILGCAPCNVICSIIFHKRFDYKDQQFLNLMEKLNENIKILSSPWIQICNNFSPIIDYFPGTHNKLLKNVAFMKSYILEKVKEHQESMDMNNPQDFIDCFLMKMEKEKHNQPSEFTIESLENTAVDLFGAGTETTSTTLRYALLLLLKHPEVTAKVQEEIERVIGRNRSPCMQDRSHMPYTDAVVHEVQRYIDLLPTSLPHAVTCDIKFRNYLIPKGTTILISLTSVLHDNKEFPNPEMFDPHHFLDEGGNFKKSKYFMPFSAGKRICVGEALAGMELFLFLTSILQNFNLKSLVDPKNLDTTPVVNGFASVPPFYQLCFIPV", "assay": "CYP inhibition in human liver microsomes", "type": "in vitro ADME", "experimental": "(§3) To evaluate the in vitro CYP inhibition of BNS808 and BNS822, the compounds were tested in human liver microsomes that are rich in drug metabolizing enzymes, including CYPs 1A2, 2C9, 2C19, 2D6, 3A4."}, "CYP 2D6": {"molecular_target": "CYP 2D6 (Homo sapiens (Human), UniProt P10635)", "sequence (P10635 whole entry)": "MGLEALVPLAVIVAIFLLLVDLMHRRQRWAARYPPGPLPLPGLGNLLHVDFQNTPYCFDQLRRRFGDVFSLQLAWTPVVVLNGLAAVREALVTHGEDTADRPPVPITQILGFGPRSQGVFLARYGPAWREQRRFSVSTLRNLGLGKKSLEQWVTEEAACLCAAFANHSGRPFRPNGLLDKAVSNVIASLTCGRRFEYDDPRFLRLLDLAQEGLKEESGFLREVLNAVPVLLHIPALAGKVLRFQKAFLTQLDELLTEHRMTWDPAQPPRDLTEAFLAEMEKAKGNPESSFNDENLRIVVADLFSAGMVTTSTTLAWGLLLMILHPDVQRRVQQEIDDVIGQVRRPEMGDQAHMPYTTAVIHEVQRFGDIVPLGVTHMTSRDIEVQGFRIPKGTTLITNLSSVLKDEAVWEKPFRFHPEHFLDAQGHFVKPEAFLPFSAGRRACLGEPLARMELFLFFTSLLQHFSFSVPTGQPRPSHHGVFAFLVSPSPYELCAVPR", "assay": "CYP inhibition in human liver microsomes", "type": "in vitro ADME", "experimental": "as §3"}, "CYP2C19": {"molecular_target": "CYP2C19 (Homo sapiens (Human), UniProt P33261)", "sequence (P33261 whole entry)": "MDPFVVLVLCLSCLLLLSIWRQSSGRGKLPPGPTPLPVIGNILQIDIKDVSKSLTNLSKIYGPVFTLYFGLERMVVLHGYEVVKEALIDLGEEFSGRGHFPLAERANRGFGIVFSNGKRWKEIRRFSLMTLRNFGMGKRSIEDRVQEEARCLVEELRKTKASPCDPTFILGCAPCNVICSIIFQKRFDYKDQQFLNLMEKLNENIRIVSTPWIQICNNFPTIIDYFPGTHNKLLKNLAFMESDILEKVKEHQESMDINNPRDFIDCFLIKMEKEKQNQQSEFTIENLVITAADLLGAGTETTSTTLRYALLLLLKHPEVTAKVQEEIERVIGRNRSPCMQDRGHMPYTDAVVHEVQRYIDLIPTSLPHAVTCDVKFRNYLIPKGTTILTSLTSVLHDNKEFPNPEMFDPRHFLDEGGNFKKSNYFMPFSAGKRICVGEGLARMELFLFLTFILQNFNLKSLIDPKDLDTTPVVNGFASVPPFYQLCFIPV", "assay": "CYP inhibition in human liver microsomes", "type": "in vitro ADME", "experimental": "as §3"}, "CYP3A4": {"molecular_target": "CYP3A4 (Homo sapiens (Human), UniProt P08684)", "sequence (P08684 whole entry)": "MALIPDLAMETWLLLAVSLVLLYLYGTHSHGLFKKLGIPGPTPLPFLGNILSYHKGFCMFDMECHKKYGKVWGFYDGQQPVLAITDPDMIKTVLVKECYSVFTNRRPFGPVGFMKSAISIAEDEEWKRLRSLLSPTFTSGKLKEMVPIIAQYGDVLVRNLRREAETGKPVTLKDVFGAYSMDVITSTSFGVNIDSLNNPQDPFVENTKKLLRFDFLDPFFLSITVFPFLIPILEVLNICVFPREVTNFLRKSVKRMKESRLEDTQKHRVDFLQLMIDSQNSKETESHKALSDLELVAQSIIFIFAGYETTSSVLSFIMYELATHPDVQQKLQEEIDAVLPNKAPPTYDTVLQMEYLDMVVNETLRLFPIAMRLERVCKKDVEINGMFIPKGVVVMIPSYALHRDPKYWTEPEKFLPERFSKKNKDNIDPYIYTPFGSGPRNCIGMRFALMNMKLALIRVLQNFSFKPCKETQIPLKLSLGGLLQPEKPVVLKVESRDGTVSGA", "assay": "CYP inhibition in human liver microsomes", "type": "in vitro ADME", "conditions": "for IC50: fifth value column, read-out: IC50 (μM) CYP 3A4", "experimental": "as §3"}, "HepG2 Cells": {"test_system": "HepG2 Cells", "assay": "Cell Viability Assay in HepG2 Cells at 72 h", "type": "cell-based, human", "conditions": "Homo sapiens, HepG2, 72 h", "experimental": "The liver plays a central role in transforming and clearing chemicals, and therefore is susceptible to toxicity of these agents. BNS808, BNS822 and other selected compounds were tested in the HepG2 assay using […] to evaluate cytotoxicity."}, "CB1 receptor": {"molecular_target": "CB1 receptor (Mus musculus (Mouse), UniProt P47746)", "sequence (P47746 whole entry)": "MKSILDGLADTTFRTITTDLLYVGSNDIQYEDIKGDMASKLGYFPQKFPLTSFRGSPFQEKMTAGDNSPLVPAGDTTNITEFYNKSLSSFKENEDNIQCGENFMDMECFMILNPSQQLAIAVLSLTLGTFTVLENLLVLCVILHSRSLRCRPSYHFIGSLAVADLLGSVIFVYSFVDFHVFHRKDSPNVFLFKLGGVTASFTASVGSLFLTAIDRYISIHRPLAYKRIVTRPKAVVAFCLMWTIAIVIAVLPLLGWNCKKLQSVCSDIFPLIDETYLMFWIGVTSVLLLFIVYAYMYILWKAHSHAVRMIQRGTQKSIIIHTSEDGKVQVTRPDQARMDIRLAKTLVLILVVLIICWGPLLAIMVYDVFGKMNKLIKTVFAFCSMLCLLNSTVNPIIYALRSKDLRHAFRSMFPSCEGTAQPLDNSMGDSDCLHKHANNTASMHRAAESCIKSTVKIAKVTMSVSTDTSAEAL", "assay": "CB1 receptor radioligand binding assay, [3H]CP-55,940 displacement, mouse brain membranes", "experimental": "Radioligand binding assays: Binding affinity was determined by a radioligand binding assay. The different BB8-conjugates binding to CB1 and CB2 receptors was assessed in competition displacement assays using [^3H]CP-55.940 as the radioligand and crude membranes from mouse brain for CB1 receptor and human kidney cells for CB2 receptor.\nCB1 receptor binding assay: Mouse brain membranes were used as the source material for CB1 receptors. The displacement of specifically bound tritiated CP-55.940 from these membranes using a standard filtration assay was used to determine the Ki values for the test compounds. Briefly. 20 μg of protein was incubated for 1 h at 30° C. in the presence of 0.5 nM [^3H]CP-55,940 and various concentrations (10^−5M-10^−11M) of test compound/control, final volume of 1 mL. The incubation was terminated by rapid filtration and washing, and the amount of specifically bound [^3H]CP-55,940 was determined. Briefly, membranes with bound [^3H]CP-55,940 were separated and washed from free ligand by vacuum filtration, adsorbing the membrane onto a Whatman glass microfiber filter paper ([…], Cat #1821271). Finally, the Whatman filter paper with adsorbed membranes was cut and placed in scintillation liquid (Ultima Gold) for 1 h at 25° C. followed by a β counter reading of bound [^3H]CP-55,940 radioligand. All data were in triplicates with Ki values determined using GraphPad Prism 7.02 analysis software. […] In some cases, membranes from human source were used to determine CB1 receptor binding affinity."}, "C57Bl/6J mice": {"test_system": "C57Bl/6J mice", "assay": "Inhibition of HU210-induced hypomotility", "type": "in vivo", "conditions": "HU210 30 μg/kg IP 30 min after", "from_the_text": "Locomotor activity: Locomotor activity was quantified by the number of disruptions of infrared XYZ beam arrays with a beam spacing of 0.25 cm in the Promethion High-Definition Behavioral Phenotyping System (Sable Instruments, Inc., Las Vegas, NV, USA).\nThe ability of BNS822 and BNS808 to induce CNS-mediated hyperactivity was further evaluated in a mouse model, using rimonabant (a brain penetrant CB1 receptor blocker) as a positive control. Mice (wild-type male C57Bl/6J) received a single dose of rimonabant (10 mg/kg IP), BNS822 (20 mg/kg PO) BNS 808 (1, 10 mg/kg PO) or vehicle; ambulatory activity was measured by the Promethion Metabolic System (Sable Instruments, Inc). In the same experimental scheme, BNS822, BNS808 and rimonabant were further studied regarding the potential to inhibit the hypomotility-induced by a CB1 receptor agonist, HU210, after a single dose of rimonabant (10 mg/kg IP), BNS822 (20 mg/kg PO) BNS808 (1, 10 mg/kg PO) or vehicle and a single dose of HU210 (30 μg/kg IP) 30 min after."}}, "note": "Like-named read-outs stand apart in the source and are kept apart here.", "data": [{"smiles": "Cc1ccc(C)c(OCCCC(C)(C)C(=O)NC2CCCOc3c2nn(-c2ccccc2Cl)c3-c2ccc(Cl)cc2)c1", "note": "(centres unmarked) [BNS822, N-[2-(2-chlorophenyl)-3-(4-chlorophenyl)-5,6,7,8-tetrahydrooxepino[3,2-c]pyrazol-8-yl]-5-(2,5-dimethylphenoxy)-2,2-dimethyl-pentanamide]", "values": [{"measurement": "potential for cardiotoxicity (QT prolongation)", "setting": "hERG potassium channels", "result": "low"}, {"measurement": "IC50", "setting": "hERG potassium channels", "result": "> 30", "unit": "µM"}, {"measurement": "P-gp substrate", "setting": "MDR1-MDCKII cells", "result": "P-gp substrates and Yes"}, {"measurement": "Rank Papp", "setting": "MDR1-MDCKII cells", "result": "Low"}, {"measurement": "Papp at 2.5 h, 2 μM", "setting": "P-gp (MDR1, ABCB1); 2 μM, A to B, 2.5 hours", "result": "< 0.02", "unit": "×10⁻⁶ cm/s"}, {"measurement": "efflux ratio at 2.5 h, 2 μM", "setting": "P-gp (MDR1, ABCB1); efflux ratio, without P-gp inhibitor, read-out: MDR1 B:A/A:B", "result": "> 3.62"}, {"measurement": "inhibitor grade, CYP2C9", "setting": "CYP2C9; human liver microsomes", "result": "weak-moderate inhibitor"}, {"measurement": "IC50", "setting": "CYP2C9; human liver microsomes, read-out: IC50 (μM) CYP 2C9", "result": 8.52, "unit": "µM"}, {"measurement": "IC50", "setting": "CYP 2D6; human liver microsomes, read-out: IC50 (μM) CYP 2D6", "result": "> 50", "unit": "µM"}, {"measurement": "IC50", "setting": "CYP2C19; human liver microsomes, read-out: IC50 (μM) CYP 2C19", "result": "> 50", "unit": "µM"}, {"measurement": "IC50", "setting": "CYP3A4", "result": "> 50", "unit": "µM"}, {"measurement": "IC50", "setting": "HepG2 Cells; read-out: Absolute IC50", "result": "> 100", "unit": "µM"}, {"measurement": "IC50", "setting": "HepG2 Cells; read-out: Relative IC50", "result": "> 100", "unit": "µM"}, {"measurement": "affinity / potency against the CB1 receptor (in words)", "setting": "CB1 receptor; CB1 receptor (mouse/human)", "result": "high potency"}, {"measurement": "Ki", "setting": "CB1 receptor; mouse (m) CB1 receptor, read-out: CB1R Ki (nM) (m)", "result": 1.4, "unit": "nM"}, {"measurement": "effect on HU210-induced hypomotility", "setting": "C57Bl/6J mice; single dose 20 mg/kg PO", "result": "apparent lack of effects"}]}, {"smiles": "O=S(=O)(NC1CCCOc2c1nn(-c1ccccc1Cl)c2-c1ccc(Cl)cc1)c1ccc(Cl)cc1", "note": "(centres unmarked) [BNS808, 4-chloro-N-[2-(2-chlorophenyl)-3-(4-chlorophenyl)-5,6,7,8-tetrahydrooxepino[3,2-c]pyrazol-8-yl]benzenesulfonamide]", "values": [{"measurement": "Hill slope", "setting": "hERG potassium channels", "result": 0.89}, {"measurement": "potential for cardiotoxicity (QT prolongation)", "setting": "hERG potassium channels", "result": "low"}, {"measurement": "IC50", "setting": "hERG potassium channels", "result": 5.39, "unit": "µM"}, {"measurement": "Rank Papp", "setting": "MDR1-MDCKII cells; MDCK-MDR1", "result": "Low"}, {"measurement": "MDR1 B:A/A:B", "setting": "MDR1-MDCKII cells; efflux ratio, without P-gp inhibitor", "result": 3.95}, {"measurement": "efflux ratio at 2.5 h, 2 μM", "setting": "P-gp (MDR1, ABCB1); efflux ratio in the presence of P-gp inhibitor GF120918, read-out: MDR1 B:A/A:B (+P-gp inhibitor)", "result": 1.88}, {"measurement": "IC50", "setting": "CYP2C9", "result": 8.33, "unit": "µM"}, {"measurement": "inhibitor grade, CYP2C9", "setting": "CYP2C9; human liver microsomes", "result": "weak-moderate inhibitor"}, {"measurement": "IC50", "setting": "CYP 2D6", "result": "> 50", "unit": "µM"}, {"measurement": "IC50", "setting": "CYP2C19", "result": 18, "unit": "µM"}, {"measurement": "inhibitor grade, CYP2C19", "setting": "CYP2C19; human liver microsomes", "result": "weak-moderate inhibitor"}, {"measurement": "inhibitor grade, CYP3A4(M)", "setting": "CYP3A4", "result": "moderate inhibitor"}, {"measurement": "IC50", "setting": "CYP3A4", "result": 2.99, "unit": "µM"}, {"measurement": "IC50", "setting": "HepG2 Cells; read-out: Absolute IC50 (μM)", "result": 26.2, "unit": "µM"}, {"measurement": "IC50", "setting": "HepG2 Cells; read-out: Relative IC50 (μM)", "result": 16.8, "unit": "µM"}, {"measurement": "effect on HU210-induced hypomotility", "setting": "C57Bl/6J mice; single dose 1, 10 mg/kg PO", "result": "apparent lack of effects"}]}]}
